Data taken from patent publication US20070066682A1, “Arylalkylamine vanadium (V) salts for the treatment and/or prevention of Diabetes mellitus” (priority 2005, published 2007).

Key:
isolated rat adipocytes = experiment: Glucose transport (2-deoxyglucose uptake) in isolated rat adipocytes; type: cell-based; conditions: isolated rat adipocytes; for stimulation of glucose transport in the presence of semicarbazide: 1 mM semicarbazide; for stimulation of glucose transport (2-DG uptake): 45 min incubation
Experimental: In order to determine whether salts formed by vanadate and benzylamine could produce an insulin mimetic effect, the effect of increasing concentrations of hexaquis(benzylammonium) decavanadate on glucose transport activity in isolated rat adipocytes was tested. […] In similar assays, the activity of hexaquis(benzylammonium) decavanadate, pentaquis(benzylammonium) decavanadate and tetraquis(benzylammonium) decavanadate on glucose transport activity in isolated rat adipocytes were analyzed.
To determine the possible insulin mimetic effect of certain vanadium arylalkylamines, the capacity of these compounds to enhance glucose transport in isolated rat adipocytes was tested. Adipose cells from Wistar rats were incubated for 45 minutes in basal conditions (Basal) or in the presence of 100 nM insulin (Ins), and different concentrations of. hexaquis(benzylammonium) decavanadate (B6V10) in the absence or in the presence of 1 mM semicarbazide (SCZ). Subsequently, 2-DG transport was measured over a 5 min. interval.
The effects of the three tested compounds (B6V10, B5V10 and B4V10) were compared. Adipose cells from Wistar rats were incubated for 45 minutes in basal conditions (Basal) or in the presence of 100 nM insulin (Ins), and different concentrations of. decavanadate (V10), hexaquis(benzylammonium) decavanadate (B6V10), pentaquis(benzylammonium) decavanadate (B5V10) or tetraquis(benzylammonium) decavanadate (B4V10) in the absence or in the presence of 1 mM semicarbazide (SCZ). 2-DG transport was measured over 5 min. intervals. […]
(§1) The effects of incubation with semicarbazide or phosphatidylinositol 3-kinase inhibitors were also investigated. Adipose cells were incubated with B6V10 (25 μM, 45 min) in the absence or presence of wortmannin (2 μM, 45 min), LY294002 (10 μM, 45 min) or semicarbazide (1 mM, 45 min) and thereafter 2-deoxyglucose uptake was determined during 5 min.

[1] = tested on: streptozotocin-induced diabetic rats; experiment: Chronic subcutaneous (osmotic minipump) treatment of streptozotocin (45 mg/kg) diabetic rats, glycemia; type: in vivo, rat; conditions: 2.5 μmol/kg/day by osmotic minipumps, about two weeks, STZ 45 mg/kg rats
Experimental: (§2) Male Wistar rats weighting 180-220 g were purchased from Harlan (Interfauna Ibèrica S.A., Spain). Diabetes was induced by a single intraperitoneal injection of a freshly prepared solution of streptozotocin (in some studies the dose was 45 mg/kg body weight and in some others 100 mg/kg body weight dissolved in 50 mM citrate buffer, pH 4.5). Only diabetic animals with glycemia above 300 mg/dl were used. The animals were housed in animal quarters at 22° C., with a 12 h light/12 h dark cycle and were fed ad libitum. All procedures used were approved by the animal ethical committee of the University of Barcelona, Spain. Male mice C57 BL/Ks bearing the db/db mutation (Jackson Laboratories, Bar Harbor, Me.) were purchased from Harlan France (Gannat, France). C57BL/6J male mice were assigned for 16 weeks to very high-fat diet containing (in kcal): 72% from fat, 28% from proteins and <1% from carbohydrates (Burcelin et al., 2002, Am. J. Physiol. Endocrinol. Metab 282: E834-E842).
(§3) Osmotic minipumps delivering B6V10 (2.5 μmol/kg body wt/day) or decavanadate (2.5 μmol/kg body wt/day) were implanted subcutaneously in diabetic rats anaesthetised by ketamine hydrochloride (95 mg/kg) and xylasine (10 mg/kg). […] Glycemia was measured on arterio-venous blood collected from the tail vessels at 09:00 am for two weeks, before the administration of vanadate. Insulin concentrations were determined before and after treatment. In another set of experiments, B6V10 was orally administered at a single dose of 5 μmol/kg/day during the first week and 10 μmol/kg/day during 2 additional weeks by gastric gavage. A control group received the corresponding decavanadate salt in the absence of benzylamine. At the end of the treatment, animals were sacrificed and the liver, fat pad, heart and lung were kept at −80° C. and the plasma at −20° C. until their use for in vitro analysis.
(§4) In glucose tolerance tests and in chronic treatments, circulating glucose concentrations were determined by a rapid glucose analyser (Accutrend® Sensor Comfort, Roche, Basel. Switzerland). Plasma insulin (IRI) concentration was determined by ELISA method using a kit obtained from Crystal Chem Inc. (Downers Grove, Ill.). Plasma triglycerides (Biosystems, Barcelona, Spain) and NEFAS (Wako Chemicals, Neuss, Germany) were determined with standard […] methods.
The effect of chronic administration of hexaquis(benzylammonium) decavanadate on glycemia from diabetic rats was determined. Thus, diabetes was induced in rats by intravenous administration of streptozotocin, which destroys the β-pancreatic cells that produce insulin.
Chronic in vivo efficacy of B6V10 was evaluated in streptozotocin-induced diabetic rats and in db/db mice. Streptozotocin-induced (45 mg/kg) diabetic rats were subcutaneously treated with hexaquis(benzylammonium) decavanadate (2.5 μmol/kg) (B6V10, solid squares, FIG. 8A) or with decavanadate (2.5 μmol/kg) (V10, open circles, FIG. 8A) delivered subcutaneously by osmotic minipumps implanted in the dorsal region. Diabetic rats were also sham-operated (untreated, solid diamonds, FIG. 8A). […] These experiments were repeated using an oral administration protocol. Streptozotocin-induced (45 mg/kg) diabetic rats were orally treated with hexaquis(benzylammonium) decavanadate (5 μmol/kg from day 0 to day 7 and 10 μmol/kg/day from day 7 to day 17) (B6V10, solid squares, FIG. 8B) or received decavanadate (10 μmol/kg) (V10, open circles, FIG. 8B). […]

[2] = tested on: streptozotocin-induced diabetic rats; experiment: Chronic oral treatment of streptozotocin (45 mg/kg) diabetic rats, glycemia; type: in vivo, rat; conditions: for glycemia during chronic oral treatment: daily oral, 17 days (5 then 10 μmol/kg/day), STZ 45 mg/kg rats
Experimental: as §2, §3, §4
The effect of the oral administration of hexaquis(benzylammonium) decavanadate on glycemia from diabetic rats was also studied. Diabetes was induced in rats by intravenous administration of streptozotocin, and subsequently, a hexaquis(benzylammonium) decavanadate or sodium decavanadate unique dose was administered to the rats. […] After seven days of treatment, the dose was increased at 10 μmol/kg/day which was maintained for an additional ten days. […] Thus, glycemia in sodium decavanadate treated rats was approximately 450 mg/dl and glycemia of hexaquis(benzylammonium) decavanadate treated rats was approximately 250 mg/dl.
Chronic in vivo efficacy of B6V10 was evaluated in streptozotocin-induced diabetic rats and in db/db mice. Streptozotocin-induced (45 mg/kg) diabetic rats were subcutaneously treated with hexaquis(benzylammonium) decavanadate (2.5 μmol/kg) (B6V10, solid squares, FIG. 8A) or with decavanadate (2.5 μmol/kg) (V10, open circles, FIG. 8A) delivered subcutaneously by osmotic minipumps implanted in the dorsal region. Diabetic rats were also sham-operated (untreated, solid diamonds, FIG. 8A). […] These experiments were repeated using an oral administration protocol. Streptozotocin-induced (45 mg/kg) diabetic rats were orally treated with hexaquis(benzylammonium) decavanadate (5 μmol/kg from day 0 to day 7 and 10 μmol/kg/day from day 7 to day 17) (B6V10, solid squares, FIG. 8B) or received decavanadate (10 μmol/kg) (V10, open circles, FIG. 8B). Nondiabetic rats were also untreated (solid triangles, FIG. 8B).

[3] = tested on: streptozotocin-induced diabetic rat with undetectable circulating insulin; experiment: Subcutaneous treatment of streptozotocin (100 mg/kg) diabetic rats with undetectable circulating insulin; type: in vivo; conditions: 2.5 μmol/kg subcutaneous minipumps, STZ 100 mg/kg
Experimental: as §2, §4
To this end, rats were made diabetic by the injection of a large dose of streptozotocin (100 mg/kg) that eliminates β-pancreatic insulin content. […] These streptozotocin-induced diabetic rats were subcutaneously treated with B6V10 (2.5 μmol/kg) (solid squares, FIG. 9A) delivered by osmotic minipumps or left untreated (solid circles, FIG. 9A). Sham-operated nondiabetic rats were also untreated (solid triangles, FIG. 9A).
The concentration of circulating glucose under these conditions was also assayed. After 28 days of treating diabetic rats with hexaquis(benzylammonium) decavanadate (2.5 μmol/kg) (wide striped bars, FIG. 9B), or with decavanadate (close striped bars, FIG. 9B) delivered by osmotic minipumps, plasma insulin and glucose were measured. Untreated diabetic (solid bars, FIG. 9B) or nondiabetic rats (open bars, FIG. 9B) were similarly assayed as controls.

protein kinase B = experiment: Protein kinase B phosphorylation in isolated rat adipocytes; type: cell-based; conditions: 25 μM, rat adipocytes
Experimental: Isolated fat cells were disrupted for total membrane preparation by hypo-osmotic lysis in a 20 mM HES buffer and an antiprotease and antiphosphatase cocktail as reported by Abella et al. (2003, Diabetes 52: 1004-1013). Protein concentrations were determined by the Bradford method (Bradford, 1976, Anal. Biochem. 72: 248-254) with gamma-globulin as protein concentration standard. Immunoprecipitation and immunoblot assays were performed as previously described by Abella et al. (2004, Id.) with the use of a monoclonal antiphosphotyrosine antibody for the immunoprecipitation and an anti-insulin receptor antibody for immunoblotting, respectively. SDS-polyacrylamide gel electrophoresis was performed on membrane proteins following conventional procedures. Proteins were transferred to Immobilon and immunoblotting was performed as reported by Castello et al. (1994, J. Biol. Chem. 269: 5905-5912).
The mechanism of action of B6V10 was investigated in isolated rat adipocytes. Adipose cells from Wistar rats were incubated for different times in the presence of 25 μM hexaquis(benzylammonium) decavanadate (B6V10). Cells were also incubated in the presence of insulin (100 nM, 45 min), decavanadate (25 μM, 45 min) or semicarbazide (1 mM, 45 min). Subsequently, 2-deoxyglucose uptake (results shown in FIG. 7A), tyrosine phosphorylation of insulin receptor (FIG. 7B), phospho-Thr^308-protein kinase B (FIG. 7C) and phospho-Ser^473-protein kinase B (FIG. 7D) was measured. […] The phosphorylation of protein kinase B induced by B6V10 was parallel to activation of glucose transport (FIG. 7C and 7D).
as §1

Substance	stimulation of glucose transport in the presence of semicarbazide (isolated rat adipocytes; dihydrate)	stimulation of glucose transport in the presence of semicarbazide (isolated rat adipocytes; listed as tetraquis(benzylammonium) decavanadate, Dihydrate)	stimulation of glucose transport (2-DG uptake) (isolated rat adipocytes)	stimulation of glucose transport in the presence of semicarbazide (isolated rat adipocytes; listed as pentaquis(benzylammonium) decavanadate, dihydrate)	glycemia during chronic subcutaneous treatment [1]	glycemia during chronic subcutaneous treatment ([1]; listed as sodium decavanadate)	glycemia during chronic oral treatment [2]	glycemia during chronic oral treatment ([2]; listed as sodium decavanadate)	glycemia ([2]; oral treatment, after dose increase to 10 μmol/kg/day)	glycemia in diabetic rats with undetectable insulin [3]	protein kinase B phosphorylation (protein kinase B)
Tetraquis(Benzylammonium) Decavanadate (V) Dihydrate [Entry B4V10]	blocked in the presence of semicarbazide	this effect was inhibited	pronounced stimulation on glucose transport	–	–	–	–	–	–	–	–
pentaquis(benzylammonium) decavanadate (V) dihydrate [Entry B5V10]	blocked in the presence of semicarbazide	–	pronounced stimulation on glucose transport	this effect was inhibited	–	–	–	–	–	–	–
sodium decavanadate [Entry V10, reference compound]	–	–	did not stimulate glucose transport	–	did not alter glycemia	did not modify substantially its glycemia	did not alter glycemia	not affected substantially	approximately 450 mg/dl	did not show any change in circulating glucose	not observed
